Data reported in ChEMBL document CHEMBL3301562, “MMV Box screening against Plasmodium falciparum protein kinases and aminoacyl tRNA synthetases”.

What was measured:
Type in all cases: functional
[1] = target: T1, Proline--tRNA ligase (Plasmodium falciparum (isolate 3D7), UniProt Q8I5R7); test: MMV: ProRS recombinant Plasmodium falciparum Prolyl-tRNA-synthetase, assay with yeast tRNA, ATP, and proline and 3 uM MMV malaria box compound, assay read out with kinase glo as % inhibition.
T1 sequence (Q8I5R7 whole entry): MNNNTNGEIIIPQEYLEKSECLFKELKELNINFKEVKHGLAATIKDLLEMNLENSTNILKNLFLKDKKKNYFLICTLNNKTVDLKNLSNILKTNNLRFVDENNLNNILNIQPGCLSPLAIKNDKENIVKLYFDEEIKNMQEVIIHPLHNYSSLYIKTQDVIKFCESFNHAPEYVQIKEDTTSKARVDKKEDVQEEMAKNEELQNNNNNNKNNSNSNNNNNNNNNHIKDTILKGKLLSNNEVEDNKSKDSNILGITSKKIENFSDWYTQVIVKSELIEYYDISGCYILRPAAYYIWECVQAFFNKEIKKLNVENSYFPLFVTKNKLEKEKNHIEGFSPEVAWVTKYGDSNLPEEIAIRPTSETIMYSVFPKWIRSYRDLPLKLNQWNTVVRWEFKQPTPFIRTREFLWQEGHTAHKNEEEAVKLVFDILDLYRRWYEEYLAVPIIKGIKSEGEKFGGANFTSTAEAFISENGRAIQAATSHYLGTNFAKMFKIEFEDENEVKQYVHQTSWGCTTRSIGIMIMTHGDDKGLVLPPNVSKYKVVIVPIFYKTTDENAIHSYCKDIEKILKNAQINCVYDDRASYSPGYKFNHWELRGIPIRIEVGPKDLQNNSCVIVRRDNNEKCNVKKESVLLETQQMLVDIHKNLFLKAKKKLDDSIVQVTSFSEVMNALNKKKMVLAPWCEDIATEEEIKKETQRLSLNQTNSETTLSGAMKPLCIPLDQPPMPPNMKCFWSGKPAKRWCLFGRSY

[2] = target: Lysine--tRNA ligase (Plasmodium falciparum (isolate 3D7), UniProt Q8IDJ8); test: MMV: KRS recombinant Plasmodium falciparum Lysyl-tRNA-synthetase, assay with yeast tRNA, ATP, and lysine and 3 uM MMV malaria box compound, assay read out with kinase glo as % inhibition.
Chain of Lysine--tRNA ligase (Q8IDJ8 whole entry): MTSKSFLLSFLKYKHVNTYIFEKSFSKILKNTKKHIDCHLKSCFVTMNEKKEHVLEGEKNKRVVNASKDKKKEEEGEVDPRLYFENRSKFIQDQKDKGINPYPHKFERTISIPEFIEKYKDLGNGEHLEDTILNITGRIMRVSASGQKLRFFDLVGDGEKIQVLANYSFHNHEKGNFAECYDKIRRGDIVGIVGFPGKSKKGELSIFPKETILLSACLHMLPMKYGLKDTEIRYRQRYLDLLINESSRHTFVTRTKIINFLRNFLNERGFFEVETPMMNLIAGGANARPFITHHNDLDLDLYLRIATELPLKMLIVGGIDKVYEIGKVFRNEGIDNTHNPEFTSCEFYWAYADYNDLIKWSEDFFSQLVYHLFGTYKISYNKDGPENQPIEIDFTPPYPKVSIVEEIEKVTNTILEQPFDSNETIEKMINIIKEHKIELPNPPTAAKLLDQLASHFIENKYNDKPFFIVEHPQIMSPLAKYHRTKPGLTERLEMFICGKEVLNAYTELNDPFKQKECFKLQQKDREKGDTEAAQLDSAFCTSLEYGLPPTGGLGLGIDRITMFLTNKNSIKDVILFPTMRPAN

[3] = target: T2, Mitogen-activated protein kinase (Plasmodium falciparum, UniProt Q25917); test: Final concentrations were 1 uM ATP, 0.5 mM DTT, 1 mM MgCl2, 0.5 mg/mL BSA, and 10 ug/ml MAP2 in a buffer of 50 mM HEPES (pH 7.0). 0.5 mg/mL histone III-S served as the substrate (13); 100 uM AMP-PNP, an ATP analog, was used as a control inhibitor. Incubation time was 4 hours.
T2 sequence (Q25917 whole entry): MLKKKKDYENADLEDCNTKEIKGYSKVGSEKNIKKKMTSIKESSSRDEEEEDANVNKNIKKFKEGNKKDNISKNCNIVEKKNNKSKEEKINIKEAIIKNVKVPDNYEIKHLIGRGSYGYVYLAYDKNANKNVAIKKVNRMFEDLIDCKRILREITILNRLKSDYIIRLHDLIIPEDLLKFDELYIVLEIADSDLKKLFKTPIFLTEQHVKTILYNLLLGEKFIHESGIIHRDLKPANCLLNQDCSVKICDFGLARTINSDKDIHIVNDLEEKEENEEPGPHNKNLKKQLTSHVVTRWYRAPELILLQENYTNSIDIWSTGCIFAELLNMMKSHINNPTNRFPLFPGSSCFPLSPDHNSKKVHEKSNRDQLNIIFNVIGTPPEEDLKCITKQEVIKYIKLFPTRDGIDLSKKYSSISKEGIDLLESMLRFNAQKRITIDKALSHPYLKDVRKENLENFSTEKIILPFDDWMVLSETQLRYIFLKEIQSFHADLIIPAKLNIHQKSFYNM

[4] = target: T3, Cdk-related protein kinase 6 (Plasmodium falciparum, UniProt O77239); test: Final concentrations were 1.5 uM ATP, 5 mM MnCl2, and 15 ug/ml PK6 in a buffer of 100 mM Tris-HCl (pH 7.5). 50 ug/mL MBP was provided as the substrate; 10 uM staurosporine was used as a control inhibitor. Incubation time was 3 hours and 40 minutes.The catalytic activity of each kinase was considered proportional to ATP consumed, as determined from measurements of residual [ATP] with the luciferase-based reagent Kinase-Glo (Promega) following incubation. Luminescence (proportional to residual [ATP]) was measured on the plate readers FLx800 (BioTek Instruments, Winooski, VT, USA) and MicroBeta2.
T3 sequence (O77239 whole entry): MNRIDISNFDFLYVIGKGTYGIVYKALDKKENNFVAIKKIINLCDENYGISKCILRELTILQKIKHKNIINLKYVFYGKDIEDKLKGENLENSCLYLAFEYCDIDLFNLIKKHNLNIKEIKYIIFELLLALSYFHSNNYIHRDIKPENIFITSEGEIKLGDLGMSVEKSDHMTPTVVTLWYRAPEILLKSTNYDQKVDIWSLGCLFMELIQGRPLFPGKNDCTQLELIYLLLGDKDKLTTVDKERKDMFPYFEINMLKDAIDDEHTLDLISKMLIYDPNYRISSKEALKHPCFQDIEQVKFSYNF

[5] = target: T4, Putative uncharacterized protein pk7 (Plasmodium falciparum, UniProt O96214); test: Final concentrations were 1 uM ATP, 2 mM DTT, 20 mM MgCl2, 2 mM MnCl2, 0.01% BSA, and 6 ug/ml PK7, in a buffer of 20 mM Tris-HCl (pH 7.5). The enzyme itself was the only substrate present (since autophosphorylation occurs); 100 uM 1NA-PP1 was used as a control inhibitor. Incubation time was 3 hours.
T4 sequence (O96214 whole entry): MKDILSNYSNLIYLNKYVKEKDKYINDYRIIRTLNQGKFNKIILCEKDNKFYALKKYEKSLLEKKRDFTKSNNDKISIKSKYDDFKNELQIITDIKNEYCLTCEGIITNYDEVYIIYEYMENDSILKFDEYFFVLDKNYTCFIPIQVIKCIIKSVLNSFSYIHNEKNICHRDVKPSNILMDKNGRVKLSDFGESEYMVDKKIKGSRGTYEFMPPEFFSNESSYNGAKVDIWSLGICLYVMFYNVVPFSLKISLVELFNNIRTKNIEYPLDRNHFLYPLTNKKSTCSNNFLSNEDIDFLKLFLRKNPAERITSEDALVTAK

[6] = target: Calcium-dependent protein kinase 1 (Plasmodium falciparum, UniProt P62344); test: MMV: CDPK1 Protein kinase inhibition assay using recombinant PfCDPK1, syntide 2 peptide substrate, ATP and KinaseGlo to measure % inhibition at 1 uM MMV box compound.
Chain of Calcium-dependent protein kinase 1 (P62344 whole entry): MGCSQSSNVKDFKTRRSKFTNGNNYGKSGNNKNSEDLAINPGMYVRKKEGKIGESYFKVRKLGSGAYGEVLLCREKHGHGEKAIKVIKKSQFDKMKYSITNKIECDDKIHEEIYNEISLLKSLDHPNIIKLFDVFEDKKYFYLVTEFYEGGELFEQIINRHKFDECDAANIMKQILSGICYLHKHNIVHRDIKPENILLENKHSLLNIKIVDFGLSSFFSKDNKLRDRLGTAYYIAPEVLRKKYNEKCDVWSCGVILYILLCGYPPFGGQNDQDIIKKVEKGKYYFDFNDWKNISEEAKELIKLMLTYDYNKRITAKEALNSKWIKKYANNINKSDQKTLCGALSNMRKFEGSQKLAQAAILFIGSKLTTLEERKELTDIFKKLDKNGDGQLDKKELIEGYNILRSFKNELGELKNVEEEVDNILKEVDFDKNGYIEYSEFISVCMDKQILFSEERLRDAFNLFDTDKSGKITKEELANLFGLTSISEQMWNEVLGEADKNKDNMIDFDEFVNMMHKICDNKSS

[7] = target: T5, Calcium-dependent protein kinase 4 (Plasmodium falciparum (isolate 3D7), UniProt Q8IBS5); test: MMV: CDPK4 Protein kinase inhibition assay using recombinant PfCDPK4, syntide2 peptide substrate, ATP and KinaseGlo to measure % inhibition at 1 uM MMV box compound.
T5 sequence (Q8IBS5 whole entry): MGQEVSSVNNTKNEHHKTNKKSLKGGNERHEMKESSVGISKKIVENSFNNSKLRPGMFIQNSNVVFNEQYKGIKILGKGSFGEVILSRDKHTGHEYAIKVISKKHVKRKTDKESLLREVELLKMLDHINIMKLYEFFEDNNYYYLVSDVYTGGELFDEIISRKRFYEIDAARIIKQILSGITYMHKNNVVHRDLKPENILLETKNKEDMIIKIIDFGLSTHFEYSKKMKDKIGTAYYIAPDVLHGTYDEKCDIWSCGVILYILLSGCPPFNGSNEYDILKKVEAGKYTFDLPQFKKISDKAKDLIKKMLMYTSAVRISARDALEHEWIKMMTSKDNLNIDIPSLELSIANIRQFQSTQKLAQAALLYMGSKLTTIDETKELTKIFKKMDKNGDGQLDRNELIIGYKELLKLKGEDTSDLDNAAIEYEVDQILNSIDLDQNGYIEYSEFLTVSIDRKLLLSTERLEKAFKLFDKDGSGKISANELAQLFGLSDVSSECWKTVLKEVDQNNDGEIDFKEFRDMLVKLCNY

| Compound | IC50 [1] | IC50 [2] | IC50 [3] | IC50 [4] | IC50 [5] | IC50 [6] | IC50 [7] |
| --- | --- | --- | --- | --- | --- | --- | --- |
| Cc1cc(C)cc(Nc2cc(C)nc3nc(C(F)(F)F)nn23)c1 | > 2500 nM | > 2500 nM | > 1000 nM | > 1000 nM | > 1000 nM | > 1000 nM | > 1000 nM |
| O=C(NCC(c1ccsc1)N1CCCCCC1)c1ccc(C(F)(F)F)cc1 (stereo not given) | > 2500 nM | > 2500 nM | > 1000 nM | > 1000 nM | > 1000 nM | > 1000 nM | > 1000 nM |
| Cc1ccc(-c2cc3c(SCC(=O)Nc4cc(C(F)(F)F)ccc4Cl)nccn3n2)cc1 | > 2500 nM | > 2500 nM | > 1000 nM | > 1000 nM | > 1000 nM | > 1000 nM | > 1000 nM |
| CCCCCC(=O)N1c2ccccc2N=C2CC(c3ccc(OC)c(OC)c3)CC(O)=C2C1c1ccc(C(F)(F)F)cc1 (stereo not given) | > 2500 nM | > 2500 nM | > 1000 nM | > 1000 nM | > 1000 nM | > 1000 nM | > 1000 nM |
| Cc1cc(NCCN2CCCCC2)c2ccc3ccccc3c2n1 | > 2500 nM | > 2500 nM | > 1000 nM | > 1000 nM | > 1000 nM | > 1000 nM | > 1000 nM |
| Cc1ccc(N2C(=O)C3C(C2=O)C2(c4ccccc4)C(=O)C3(c3ccccc3)C(c3ccccc3)=C2c2ccccc2)cc1 (stereo not given) | > 2500 nM | > 2500 nM | > 1000 nM | > 1000 nM | > 1000 nM | > 1000 nM | > 1000 nM |
| CCc1c(C)c(=N)c2ccccc2n1C | > 2500 nM | > 2500 nM | > 1000 nM | > 1000 nM | > 1000 nM | > 1000 nM | > 1000 nM |
| CCOC(=O)C1=C(c2ccccc2)N=c2sc(=Cc3cc(C)n(-c4ccc(F)cc4)c3C)c(=O)n2C1c1cccc(OC)c1OC (stereo not given) | > 2500 nM | > 2500 nM | > 1000 nM | > 1000 nM | > 1000 nM | > 1000 nM | > 1000 nM |
| CCC1(C)CC(CCNCc2ccccc2O)(c2ccc(C)cc2)CCO1 (stereo not given) | > 2500 nM | > 2500 nM | > 1000 nM | > 1000 nM | > 1000 nM | > 1000 nM | > 1000 nM |
| Cc1cc(Nc2ccc(C)c(Cl)c2)n2nc(C(F)(F)F)nc2n1 | > 2500 nM | > 2500 nM | > 1000 nM | > 1000 nM | > 1000 nM | > 1000 nM | > 1000 nM |
| Fc1ccc2[nH]c3c(NCCCN4CCOCC4)ncnc3c2c1 | > 2500 nM | > 2500 nM | > 1000 nM | > 1000 nM | > 1000 nM | > 1000 nM | > 1000 nM |
| Cc1cccc(Nc2nc(N)c3ccccc3n2)c1 | > 2500 nM | > 2500 nM | > 1000 nM | > 1000 nM | > 1000 nM | > 1000 nM | > 1000 nM |
| CCn1c(CN2CCN(Cc3ccccc3)CC2)nc2cc(NC(=O)c3cccs3)ccc21 | > 2500 nM | > 2500 nM | > 1000 nM | > 1000 nM | > 1000 nM | > 1000 nM | > 1000 nM |
| COc1cc(OC)c(N(C)C(=O)c2cc3c(s2)-c2ccccc2S(=O)(=O)C3)cc1Cl | > 2500 nM | > 2500 nM | > 1000 nM | > 1000 nM | > 1000 nM | > 1000 nM | > 1000 nM |
| COc1ccccc1CNC(=O)CCn1c(=O)[nH]c2ccsc2c1=O | > 2500 nM | > 2500 nM | > 1000 nM | > 1000 nM | > 1000 nM | > 1000 nM | > 1000 nM |
| COc1ccc(Br)cc1C1Nc2ccc3ccccc3c2C2=C1C(=O)CC(c1ccccc1)C2 (stereo not given) | > 2500 nM | > 2500 nM | > 1000 nM | > 1000 nM | > 1000 nM | > 1000 nM | > 1000 nM |
| Cc1cc(C=C2SC(=Nc3ccccc3)N(C3CCCC3)C2=O)c(C)n1-c1ccc(Cl)cc1 | > 2500 nM | > 2500 nM | > 1000 nM | > 1000 nM | > 1000 nM | > 1000 nM | > 1000 nM |
| CCc1ccc(Nc2cc(C)c3ccc(O)cc3n2)cc1 | > 2500 nM | > 2500 nM | > 1000 nM | > 1000 nM | > 1000 nM | > 1000 nM | > 1000 nM |
| CCCc1c(CC)c(=N)c2ccccc2n1C | > 2500 nM | > 2500 nM | > 1000 nM | > 1000 nM | > 1000 nM | > 1000 nM | > 1000 nM |
| CCOC(=O)c1cnc2c(C)cc(C)cc2c1Nc1ccc(OC)c(OC)c1 | > 2500 nM | > 2500 nM | > 1000 nM | > 1000 nM | > 1000 nM | > 1000 nM | > 1000 nM |
